± gives the expanded uncertainty stated by the source.
Conditions: Liquid; for mass density: 298.15 K, 101.33 kPa, Vibrating tube method; for Normal boiling temperature: Ebulliometric method (Recirculating still)

SMILES	mass density [kg/m3]	Normal boiling temperature [°C]
O [water]	997.8 ± 0.2	100.00 ± 0.2
CC(=O)O [acetic acid]	1042.5 ± 0.2	117.88 ± 0.2
